# How the values were obtained:
# [1] = test system: oxazolone induced DTH, ear thickness; assay: Oxazolone induced delayed type hypersensitivity; assay type: in vivo, Male ICR mice; conditions: for decrease in ΔThickness, inhibition as compared to untreated animals: day one after challenge
# Experimental: Male ICR mice (average body weight 20-25 g, Harlan, Israel) were anesthetized using a mixture of 35 mg/kg ketamine and 8 mg/kg xylazine. The abdomen of the sedated animals was shaved, and the animals were sensitized by topical application of 2% oxazolone in acetone:sesame oil (4:1 volume per volume), 100 μl to the shaved abdomen and 5 μl to each paw. Five days later, the sensitized mice were anesthetized again and their right ear was challenged with 10 μl of 1% oxazolone. Immediately before this challenge, vehicle (5 ml/kg) or test compounds were administered i.v. Each treatment group comprised at least 5 animals. The ear thickness was measured 24 and 48 hours following challenge using a micrometer. The difference in ear thickness (ΔThickness) between the challenged and non-challenged ear was calculated. The average ΔThickness and SEM were calculated on each day following challenge (baseline) for all treatment groups.
# IL-10 = assay: Gene expression in LPS activated RAW 264.7 macrophages, IL-10; assay type: cell-based, mouse; conditions: RAW 264.7, 10 μM, LPS 1 μg/ml, RNA 3 hrs after activation
# Experimental: RAW 264.7 macrophages, a mouse cell line (ATCC # TIB 71), were grown in Dulbecco's modified Eagle's medium (DMEM) with 4 mM L-glutamine adjusted to contain 1.5 g/L sodium bicarbonate, 4.5 g/L glucose, and 10% heat inactivated fetal bovine serum. Cells were grown in tissue culture flasks and seeded at appropriate density into 6 wells tissue culture plates. Four million Raw cells in half a milliliter were stimulated with 1 μg/ml LPS E. coli 055:B5 (DIFCO Laboratories). The mouse macrophages were pre-treated for one hour with controls or 10 μM of test compounds, and later on activated with LPS. RNA samples were extracted from the cells 3 hrs after activation and gene expression levels were analyzed by real-time RT-PCR. In parallel, supernatants were collected and secretion of inflammatory mediators was analyzed using ELISA techniques according to the instructions of the kit manufacturer.
# Total RNA is prepared using SV total RNA isolation system (Promega). The cells were homogenized in lysis buffer. […] RNA concentrations were determined using GeneQuant II (Pharmacia-Amersham). […] Quantitative real-time RT-PCR included 1 μl of the cDNA, 300 nM of the appropriate forward and reverse primers (according to the gene monitored) and 7.5 μl of the reaction mix containing buffer, nucleotides, Taq polymerase and SYBER green (SYBER Green master mix, Applied Biosystems), in a total reaction volume of 15 μl. […]
# [2] = test system: mechanical allodyna after chronic constriction of the sciatic nerve; assay: Neuropathic pain, chronic constriction of the sciatic nerve (CCI); assay type: in vivo, Male Sprague Dawley rats; conditions: four and a half hour after administration
# Experimental: The analgesic activity of compounds of the invention was assessed in a chronic constriction induced (CCI) model of neuropathic pain. […] The development of mechanical allodyna was monitored using a Dynamic Plantar Sesthesiomether as described in Example 18. This apparatus is an automated version of the classical von Frey filaments' test.
# Pre-surgery baseline values were ascertained as the mean of 2 pre-surgery values. Once the baseline values are established, the animals were surgically prepared by constricting the right sciatic nerve with 4-0 chromic cat gut loose ligatures. On day 11 post-operation, the animals that have developed mechanical allodyna were arbitrarily allocated to the various treatment groups based on the pre-surgery values.
# The design was randomized, performed in a masked fashion as to whether drug or vehicle is being given. Male Sprague Dawley rats (average body weight 240 g, Harlan, Israel), were allowed to acclimatize to the behavioral testing equipment prior to testing. On the testing day, the animals, at least six per treatment group, were administered the compounds and controls at a volume dosage of 5 ml/kg. Fifteen minutes later, the mechanical stimulus was applied and the force, measured in grams, causing a withdrawal response for each of the ipsilateral and contralateral hind paws was evaluated.
# Results are expressed as mean±SEM for each treatment group and the differences among those groups are analyzed by analysis of variance (ANOVA) followed by post-hoc Tukey's test. A value of p<0.05 is considered to be statistically significant. Thereafter the difference in the force to be applied to the injured paw as compared to the normal paw was calculated. Δforce, expressed in grams, was measured at baseline and 1 and 4.5 hours after treatment.
smiles,measurement,setting,value
"CCCCC(C)(C)c1cc(O)c2c(c1)OC1CCCCC21 (stereo not shown) [Compound C6S-3, 3-(1,1-dimethylpentyl)-5a,6,7,8,9,9a-hexahydro-dibenzofuran-1-ol]","Difference in Ear Thickness, Baseline, Mean",[1]; 2 mg/kg IV,3.76 ×10^−2 mm
same,"Difference in Ear Thickness, Day 1, Mean",[1]; 2 mg/kg IV,8.64 ×10^−2 mm
same,"Difference in Ear Thickness, Day 2, Mean",[1]; 2 mg/kg IV,5.78 ×10^−2 mm
same,"decrease in ΔThickness, inhibition as compared to untreated animals",[1]; 2 mg/kg i.v.,25%
"CCCCC(C)(C)c1cc(O)c2c(c1)OC1C2CCC(C)(C)C1O (stereo not shown) [Compound C6S-7, 3-(1,1-dimethylpentyl)-7,7-dimethyl-5a,6,7,8,9,9a-hexahydro-dibenzofuran-1,6-diol]","Percent inhibition of gene expression, IL-10",IL-10,33%
"CCCCCCC(C)(C)c1cc(O)c2c(c1)OC1C(O)CCCCC21 (stereo not drawn) [Compound C7S-2, 2-(1,1-dimethylheptyl)-5,6,7,8,9,9a-hexahydro-4bH-10-oxa-benzo[α]azulen-4,9-diol]",inhibition of the pain behavior (expressed in Δforce) as compared to baseline,[2]; 0.005 mg/kg i.v.,58%
same,inhibition of the pain behavior (expressed in Δforce) as compared to baseline,[2]; 0.01 mg/kg i.v.,67%
same,inhibition of the pain behavior (expressed in Δforce) as compared to baseline,[2]; 0.025 mg/kg i.v.,84%
same,inhibition of the pain behavior (expressed in Δforce) as compared to baseline,[2]; 0.5 mg/kg i.v.,92%
same,"Difference in Ear Thickness, Baseline, Mean",[1]; 0.5 mg/kg IV,3.66 ×10^−2 mm
same,"Difference in Ear Thickness, Day 1, Mean",[1]; 0.5 mg/kg IV,8.18 ×10^−2 mm
same,"Difference in Ear Thickness, Day 2, Mean",[1]; 0.5 mg/kg IV,5.90 ×10^−2 mm
same,"decrease in ΔThickness, inhibition as compared to untreated animals",[1]; 0.5 mg/kg i.v.,29%

# — patent US20090054376A1, “BENZOFURAN DERIVATIVES WITH THERAPEUTIC ACTIVITIES” (Pharmos Corporation, priority 2005, published 2009)
